Results: US8778919B2, “Cyclic anilino—pyridinotriazines” (Janssen Pharmaceutica NV, priority 2005, dated 2014)

Key:
Assay type in all cases: biochemical
[1] = molecular target: CDK1/cyclinB (h) (Homo sapiens, UniProt P06493); experiment: Kinase profiling C3.2 CDK1/cyclinB human; details: test concentration of 10^−6 M
Outline: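 Radiometric filter-binding assay: human CDK1/cyclinB (5-10 mU) with 0.1 mg/ml histone H1 substrate and [γ-33P]ATP in 8 mM MOPS pH 7.0, 10 mM Mg acetate, 40 min at room temperature. Stopped with phosphoric acid; substrate-bound 33P counted on P30 filtermat by scintillation.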

[2] = molecular target: CDK2/cyclinE (h) (Homo sapiens, UniProt P24941); experiment: Kinase profiling C3.4 CDK2/cyclinE human; details: test concentration of 10^−6 M
Outline: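 Radiometric filter-binding assay: 5-10 mU enzyme with 0.1 mg/ml histone H1 in 8 mM MOPS pH 7.0, 0.2 mM EDTA, 10 mM Mg acetate and [γ-33P]ATP. Incubated 40 min at room temperature, stopped with phosphoric acid. Substrate-bound 33P counted on P30 filtermat.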

[3] = molecular target: GSK-3α (Homo sapiens, UniProt P49840); experiment: GSK-3 kinase assay (C1), GSK-3α; details: 1 μM ATP; for IC50: read-out: C1 Score α
GSK-3α, sequence (P49840 whole entry, species assumed): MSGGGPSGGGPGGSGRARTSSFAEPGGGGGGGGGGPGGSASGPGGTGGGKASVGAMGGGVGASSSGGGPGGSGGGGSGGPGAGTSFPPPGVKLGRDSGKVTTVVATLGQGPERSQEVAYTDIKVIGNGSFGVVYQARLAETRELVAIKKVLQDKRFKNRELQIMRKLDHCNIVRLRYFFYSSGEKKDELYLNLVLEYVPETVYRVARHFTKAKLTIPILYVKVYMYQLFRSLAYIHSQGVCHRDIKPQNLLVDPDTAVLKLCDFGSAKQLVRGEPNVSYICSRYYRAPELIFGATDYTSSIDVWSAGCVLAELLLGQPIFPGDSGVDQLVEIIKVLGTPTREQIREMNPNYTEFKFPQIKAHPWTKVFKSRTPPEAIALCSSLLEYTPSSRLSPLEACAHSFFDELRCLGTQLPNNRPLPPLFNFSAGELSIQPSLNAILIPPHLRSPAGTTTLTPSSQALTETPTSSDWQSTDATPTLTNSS
Outline: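 Radiometric SPA at room temperature in 25 mM Tris pH 7.4 with 10 mM MgCl2, 1 mM DTT, 5.7 ng/μl GSK-3β or 0.25 ng/μl GSK-3α, 5 μM biotinylated CREB peptide and 1 μM ATP plus ^33P-ATP. Stopped after 1 h; IC50 from dose-response versus no-compound control, reported as pIC50 score bands.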

[4] = molecular target: CDK5/p35 human (Homo sapiens, UniProt Q00535); experiment: Kinase profiling C3.6 CDK5/p35 human; details: CDK5/p35, test concentration of 10^−6 M
CDK5/p35 human, sequence (Q00535 whole entry): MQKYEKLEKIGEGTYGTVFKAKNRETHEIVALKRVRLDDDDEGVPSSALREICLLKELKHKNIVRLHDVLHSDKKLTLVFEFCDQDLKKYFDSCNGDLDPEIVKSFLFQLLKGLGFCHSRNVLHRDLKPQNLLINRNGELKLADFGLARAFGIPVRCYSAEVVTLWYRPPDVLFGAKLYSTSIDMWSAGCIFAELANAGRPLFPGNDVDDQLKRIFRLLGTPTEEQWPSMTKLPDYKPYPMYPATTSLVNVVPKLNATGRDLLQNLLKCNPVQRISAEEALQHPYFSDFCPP
CDK5/p35 human, sequence (Q15078 whole entry partner): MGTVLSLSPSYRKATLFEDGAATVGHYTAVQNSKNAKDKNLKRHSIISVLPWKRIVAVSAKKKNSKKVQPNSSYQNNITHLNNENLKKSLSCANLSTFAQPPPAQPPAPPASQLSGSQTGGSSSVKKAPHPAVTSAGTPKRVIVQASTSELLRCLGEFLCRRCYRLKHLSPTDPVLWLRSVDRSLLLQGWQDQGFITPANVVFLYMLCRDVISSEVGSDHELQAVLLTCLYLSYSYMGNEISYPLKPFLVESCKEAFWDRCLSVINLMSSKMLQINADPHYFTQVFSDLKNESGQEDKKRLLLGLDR
Outline: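 Radiometric filter-binding assay: human CDK5/p35 (5-10 mU) with 0.1 mg/ml histone H1 substrate in 8 mM MOPS pH 7.0, 0.2 mM EDTA, 10 mM Mg acetate and [γ-33P]ATP. Incubated 40 min at room temperature, stopped with phosphoric acid. Substrate 33P incorporation counted on P30 filtermat by scintillation.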

[5] = molecular target: CDK7/cyclinH/MAT1 (h) (Homo sapiens, UniProt P50613); experiment: Kinase profiling C3.8 CDK7/cyclinH/MAT1 human; details: CDK7/cyclinH/MAT1, test concentration of 10^−6 M
CDK7/cyclinH/MAT1 (h), sequence (P50613 whole entry): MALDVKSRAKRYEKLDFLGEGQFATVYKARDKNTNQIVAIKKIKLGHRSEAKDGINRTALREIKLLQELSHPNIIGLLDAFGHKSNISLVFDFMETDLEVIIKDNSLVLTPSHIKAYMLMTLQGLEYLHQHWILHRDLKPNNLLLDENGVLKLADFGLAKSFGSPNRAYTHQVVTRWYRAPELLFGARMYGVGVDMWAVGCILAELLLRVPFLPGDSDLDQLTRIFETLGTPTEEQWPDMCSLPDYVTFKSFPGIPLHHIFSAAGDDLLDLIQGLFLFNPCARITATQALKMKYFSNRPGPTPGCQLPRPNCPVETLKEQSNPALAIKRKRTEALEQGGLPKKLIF
CDK7/cyclinH/MAT1 (h), sequence (P51946 whole entry partner): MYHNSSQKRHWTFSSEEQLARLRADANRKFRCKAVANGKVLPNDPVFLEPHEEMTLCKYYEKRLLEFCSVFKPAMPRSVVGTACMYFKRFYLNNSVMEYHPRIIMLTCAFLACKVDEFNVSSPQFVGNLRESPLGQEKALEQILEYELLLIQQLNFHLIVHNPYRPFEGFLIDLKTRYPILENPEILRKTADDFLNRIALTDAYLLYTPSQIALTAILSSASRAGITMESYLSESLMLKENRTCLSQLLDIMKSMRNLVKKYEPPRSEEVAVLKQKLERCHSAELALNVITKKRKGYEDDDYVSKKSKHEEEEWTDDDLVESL
CDK7/cyclinH/MAT1 (h), sequence (P51948 whole entry partner): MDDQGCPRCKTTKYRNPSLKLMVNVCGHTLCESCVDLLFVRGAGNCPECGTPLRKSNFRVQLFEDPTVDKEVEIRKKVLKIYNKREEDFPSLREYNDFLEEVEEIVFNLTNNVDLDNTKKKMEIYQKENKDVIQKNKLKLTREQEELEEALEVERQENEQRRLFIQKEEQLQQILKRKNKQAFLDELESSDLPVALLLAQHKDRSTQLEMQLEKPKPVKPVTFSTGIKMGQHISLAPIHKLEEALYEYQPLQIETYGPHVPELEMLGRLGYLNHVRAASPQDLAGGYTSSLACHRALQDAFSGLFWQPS
Outline: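 Human CDK7/cyclinH/MAT1 (5-10 mU) incubated 40 min at room temperature in 8 mM MOPS pH 7.0, 0.2 mM EDTA, 10 mM Mg acetate, 500 μM peptide substrate and [γ-^33P]ATP. Stopped with phosphoric acid; substrate phosphorylation measured by filter binding and scintillation counting.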

[6] = molecular target: CDK3/cyclinE (h) (Homo sapiens, UniProt Q00526); experiment: Kinase profiling C3.5 CDK3/cyclinE human; details: test concentration of 10^−6 M
Outline: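 Human CDK3/cyclinE (5-10 mU) phosphorylated 0.1 mg/ml histone H1 in 8 mM MOPS pH 7.0, 0.2 mM EDTA and 10 mM MgAcetate with [γ-33P]ATP. Reaction ran 40 min at room temperature and was stopped with phosphoric acid. Substrate-bound radioactivity was captured on P30 filtermat and measured by scintillation counting.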

CDK1/cyclinB (h), sequence (P06493 whole entry): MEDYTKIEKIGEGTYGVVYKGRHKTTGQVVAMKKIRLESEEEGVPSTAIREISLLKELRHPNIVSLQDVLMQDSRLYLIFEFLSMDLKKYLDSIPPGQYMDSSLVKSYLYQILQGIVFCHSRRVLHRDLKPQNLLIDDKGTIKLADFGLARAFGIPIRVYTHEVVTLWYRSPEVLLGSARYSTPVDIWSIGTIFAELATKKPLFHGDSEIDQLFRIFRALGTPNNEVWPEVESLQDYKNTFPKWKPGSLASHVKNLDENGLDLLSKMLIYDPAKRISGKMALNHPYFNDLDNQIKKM
CDK1/cyclinB (h), sequence (P14635 whole entry partner): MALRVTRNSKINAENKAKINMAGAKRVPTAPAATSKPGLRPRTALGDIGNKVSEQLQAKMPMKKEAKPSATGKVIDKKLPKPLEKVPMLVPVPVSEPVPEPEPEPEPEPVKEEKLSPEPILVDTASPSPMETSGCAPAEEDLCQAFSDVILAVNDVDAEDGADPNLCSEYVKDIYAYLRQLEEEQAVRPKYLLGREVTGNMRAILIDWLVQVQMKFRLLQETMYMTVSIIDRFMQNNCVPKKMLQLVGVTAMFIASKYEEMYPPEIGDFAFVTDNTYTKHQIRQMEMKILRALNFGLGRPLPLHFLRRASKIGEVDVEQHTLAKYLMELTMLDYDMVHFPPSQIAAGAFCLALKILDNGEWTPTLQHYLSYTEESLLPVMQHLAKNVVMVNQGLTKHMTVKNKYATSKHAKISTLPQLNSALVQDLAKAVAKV

SMILES	C3.2 score [1]	C3.4 score [2]	IC50 [3]	C3.6 score [4]	C3.8 score [5]	C3.5 score [6]	C1 Score α [3]
CN1CC(=O)NCCCc2cc(ccn2)-c2ncnc(n2)Nc2cccc(c2)C1 [Compound 10]	4 (Score 4 = >80% inhibition)	4 (Score 4 = >80% inhibition)	< 10 nM	4 (Score 4 = >80% inhibition)	4 (Score 4 = >80% inhibition)	4 (Score 4 = >80% inhibition)	
O=C1NCCCc2cc(ccn2)-c2ncnc(n2)Nc2cccc(c2)CN2CCCC12 (stereo not drawn) [Compound 12]	3 (Score 3 = 60-80% inhibition)	4 (Score 4 = >80% inhibition)	100 to 1000 nM	2 (Score 2 = 30-60% inhibition)	3 (Score 3 = 60-80% inhibition)	3 (Score 3 = 60-80% inhibition)	
O=C1CN2CCN(CC2)Cc2cccc(c2)Nc2ncnc(n2)-c2ccnc(c2)CCCN1 [Compound 9]	4 (Score 4 = >80% inhibition)	4 (Score 4 = >80% inhibition)		2 (Score 2 = 30-60% inhibition)	2 (Score 2 = 30-60% inhibition)	3 (Score 3 = 60-80% inhibition)	4 (Score 4=pIC50 value>8)
CN1CC(=O)NCC#Cc2cc(ccn2)-c2ncnc(n2)Nc2cccc(c2)C1 [Compound 1]	4 (Score 4 = >80% inhibition)	4 (Score 4 = >80% inhibition)	< 10 nM	4 (Score 4 = >80% inhibition)	4 (Score 4 = >80% inhibition)	4 (Score 4 = >80% inhibition)	
CN1CC(=O)NC/C(Cl)=C/c2cc(ccn2)-c2ncnc(n2)Nc2cccc(c2)C1 [Compound 2]	4 (Score 4 = >80% inhibition)	4 (Score 4 = >80% inhibition)	< 10 nM	4 (Score 4 = >80% inhibition)	3 (Score 3 = 60-80% inhibition)	4 (Score 4 = >80% inhibition)	
O=C1NCCCc2cc(ccn2)-c2ncnc(n2)Nc2cccc(c2)CN2C[C@H](O)C[C@@H]12 [Compound 14]	2 (Score 2 = 30-60% inhibition)	1 (Score 1 = 10-30% inhibition)	10 to 100 nM	1 (Score 1 = 10-30% inhibition)	2 (Score 2 = 30-60% inhibition)	2 (Score 2 = 30-60% inhibition)	
CCN1CCCc2cc(ccn2)-c2ncnc(n2)Nc2cccc(c2)CCNC(=O)C1 [Compound 30]	4 (Score 4 = >80% inhibition)	4 (Score 4 = >80% inhibition)	< 10 nM	4 (Score 4 = >80% inhibition)	3 (Score 3 = 60-80% inhibition)	4 (Score 4 = >80% inhibition)	

Now from value to compound:

C3.2 score [1]	C3.4 score [2]	IC50 [3]	C3.6 score [4]	C3.8 score [5]	C3.5 score [6]	C1 Score α [3]	SMILES
4 (Score 4 = >80% inhibition)	4 (Score 4 = >80% inhibition)	< 10 nM	4 (Score 4 = >80% inhibition)	2 (Score 2 = 30-60% inhibition)	4 (Score 4 = >80% inhibition)		CCN1CC(=O)NCCCc2cc(ccn2)-c2ncnc(n2)Nc2cc(Cl)cc(c2)C1 [Compound 34]
4 (Score 4 = >80% inhibition)	4 (Score 4 = >80% inhibition)	< 10 nM	3 (Score 3 = 60-80% inhibition)	2 (Score 2 = 30-60% inhibition)	3 (Score 3 = 60-80% inhibition)		O=C1CN2CCN(CC2)Cc2cccc(c2)Nc2ncnc(n2)-c2ccnc(c2)CCCN1 [Compound 36]
4 (Score 4 = >80% inhibition)	4 (Score 4 = >80% inhibition)	10 to 100 nM	4 (Score 4 = >80% inhibition)	4 (Score 4 = >80% inhibition)	4 (Score 4 = >80% inhibition)		O=C1CCN2CCN(CC2)Cc2cccc(c2)Nc2ncnc(n2)-c2ccnc(c2)CCCN1 [Compound 35]
